Measurements as given in ChEMBL document CHEMBL1909046, “DrugMatrix in vitro pharmacology data”.

What was measured:
[1] = biological target: Beta-1 adrenergic receptor (Homo sapiens, UniProt P08588); test: DRUGMATRIX: Adrenergic beta1 radioligand binding (ligand: [125I] Cyanopindolol); format: cell membranes, CHO-K1, Membrane; conditions: cho-k1; Not Active = under 50% inhibition at 10 µM
[2] = biological target: T1, Type-2 angiotensin II receptor (Homo sapiens, UniProt P50052); format: cell-based; conditions: cho-k1; further: in other assays of this panel Not Active means under 50% inhibition at 10 µM
T1 sequence (P50052 whole entry): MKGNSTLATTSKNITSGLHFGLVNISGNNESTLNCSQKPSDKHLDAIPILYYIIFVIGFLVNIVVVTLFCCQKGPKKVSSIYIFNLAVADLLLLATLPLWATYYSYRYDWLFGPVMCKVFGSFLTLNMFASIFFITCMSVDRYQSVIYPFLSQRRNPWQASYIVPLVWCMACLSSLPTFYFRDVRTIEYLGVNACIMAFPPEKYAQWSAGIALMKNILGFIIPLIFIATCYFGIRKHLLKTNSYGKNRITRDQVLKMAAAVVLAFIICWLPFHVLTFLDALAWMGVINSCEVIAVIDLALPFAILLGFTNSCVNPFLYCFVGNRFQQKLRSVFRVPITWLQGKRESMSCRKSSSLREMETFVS

[3] = biological target: T2, Calcitonin receptor (Homo sapiens, UniProt P30988); format: cell membranes, Membrane; conditions: t47d; further: in other assays of this panel Not Active means under 50% inhibition at 10 µM
T2 sequence (P30988 whole entry): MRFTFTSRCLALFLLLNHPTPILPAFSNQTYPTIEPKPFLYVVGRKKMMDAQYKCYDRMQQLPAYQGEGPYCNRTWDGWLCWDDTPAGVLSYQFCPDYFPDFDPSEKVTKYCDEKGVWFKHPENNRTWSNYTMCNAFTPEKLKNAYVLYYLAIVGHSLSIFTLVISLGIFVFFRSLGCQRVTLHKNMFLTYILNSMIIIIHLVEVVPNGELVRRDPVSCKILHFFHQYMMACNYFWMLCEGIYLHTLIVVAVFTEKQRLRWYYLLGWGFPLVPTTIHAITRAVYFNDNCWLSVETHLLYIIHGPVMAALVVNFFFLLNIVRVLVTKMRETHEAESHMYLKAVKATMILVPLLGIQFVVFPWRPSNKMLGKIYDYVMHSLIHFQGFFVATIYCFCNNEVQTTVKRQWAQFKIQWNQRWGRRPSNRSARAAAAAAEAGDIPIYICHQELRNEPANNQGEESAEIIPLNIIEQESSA

[4] = biological target: T3, 5-hydroxytryptamine receptor 2C (Homo sapiens, UniProt P28335); test: DRUGMATRIX: Serotonin (5-Hydroxytryptamine) 5-HT2C radioligand binding (ligand: [3H] Mesulergine); format: cell membranes, CHO-K1, Membrane; conditions: cho-k1; Not Active = under 50% inhibition at 10 µM
T3 sequence (P28335 whole entry): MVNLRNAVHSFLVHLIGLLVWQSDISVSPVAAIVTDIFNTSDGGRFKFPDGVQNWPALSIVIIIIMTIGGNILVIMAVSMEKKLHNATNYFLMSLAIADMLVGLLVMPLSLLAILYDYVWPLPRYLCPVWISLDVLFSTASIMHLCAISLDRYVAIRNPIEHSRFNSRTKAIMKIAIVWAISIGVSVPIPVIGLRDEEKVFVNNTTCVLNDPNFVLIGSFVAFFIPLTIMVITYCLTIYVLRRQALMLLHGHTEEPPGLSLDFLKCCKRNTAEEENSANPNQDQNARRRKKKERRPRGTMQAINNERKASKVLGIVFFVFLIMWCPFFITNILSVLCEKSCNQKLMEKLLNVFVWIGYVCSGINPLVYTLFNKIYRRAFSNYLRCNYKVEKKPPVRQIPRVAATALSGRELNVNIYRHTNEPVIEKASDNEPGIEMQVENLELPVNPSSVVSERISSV

[5] = biological target: T4, Thromboxane-A synthase (Homo sapiens, UniProt P24557); test: biochemical; format: tissue-based, Platelet; conditions: platelet;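 further: enzyme inhibition assay with PGH2 supplied as substrate; in other assays of this panel Not Active means under 50% inhibition at 10 µM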
T4 sequence (P24557 whole entry): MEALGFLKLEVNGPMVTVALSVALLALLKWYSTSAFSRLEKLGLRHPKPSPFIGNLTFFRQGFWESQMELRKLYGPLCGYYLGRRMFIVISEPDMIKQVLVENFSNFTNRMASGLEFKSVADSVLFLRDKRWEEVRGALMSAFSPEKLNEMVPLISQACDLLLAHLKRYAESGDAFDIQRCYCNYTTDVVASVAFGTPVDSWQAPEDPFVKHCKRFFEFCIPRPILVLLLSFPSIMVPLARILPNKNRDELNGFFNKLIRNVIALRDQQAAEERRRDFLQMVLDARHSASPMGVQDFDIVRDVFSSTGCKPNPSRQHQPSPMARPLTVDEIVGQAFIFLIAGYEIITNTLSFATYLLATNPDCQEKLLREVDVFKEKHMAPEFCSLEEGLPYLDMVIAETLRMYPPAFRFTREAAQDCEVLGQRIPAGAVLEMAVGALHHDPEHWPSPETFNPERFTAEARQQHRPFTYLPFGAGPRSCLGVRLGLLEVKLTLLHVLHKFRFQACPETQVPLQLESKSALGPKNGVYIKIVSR

[6] = DRUGMATRIX: Interleukin IL-1 radioligand binding (ligand: [125I] interleukin 1beta); format: cell membranes, Membrane; conditions: nih3t3; Not Active = under 50% inhibition at 10 µM
[7] = DRUGMATRIX: Phorbol Ester radioligand binding (ligand: [3H] PDBu); format: cell membranes, Mus musculus, ICR, Brain, Membrane; conditions: Not Active = under 50% inhibition at 10 µM
[8] = biological target: Cytochrome P450 2C9 (Homo sapiens, UniProt P11712); conditions: bti-tn-5b1-4; further: in other assays of this panel Not Active means under 50% inhibition at 10 µM
Chain of Cytochrome P450 2C9 (P11712 whole entry): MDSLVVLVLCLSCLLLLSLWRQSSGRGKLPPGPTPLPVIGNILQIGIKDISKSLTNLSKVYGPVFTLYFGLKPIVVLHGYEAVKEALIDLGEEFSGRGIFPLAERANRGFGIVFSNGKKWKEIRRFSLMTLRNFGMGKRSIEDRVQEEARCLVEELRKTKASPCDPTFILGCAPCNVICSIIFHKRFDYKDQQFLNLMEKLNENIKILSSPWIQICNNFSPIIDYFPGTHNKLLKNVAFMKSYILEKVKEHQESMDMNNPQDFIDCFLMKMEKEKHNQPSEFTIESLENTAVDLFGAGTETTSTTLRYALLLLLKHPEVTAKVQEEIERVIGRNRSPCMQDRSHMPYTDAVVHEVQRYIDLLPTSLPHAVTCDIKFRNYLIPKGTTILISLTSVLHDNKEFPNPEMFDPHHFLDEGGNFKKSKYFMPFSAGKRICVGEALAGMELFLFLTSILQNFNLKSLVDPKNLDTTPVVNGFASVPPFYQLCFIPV

Chain of Beta-1 adrenergic receptor (P08588 whole entry): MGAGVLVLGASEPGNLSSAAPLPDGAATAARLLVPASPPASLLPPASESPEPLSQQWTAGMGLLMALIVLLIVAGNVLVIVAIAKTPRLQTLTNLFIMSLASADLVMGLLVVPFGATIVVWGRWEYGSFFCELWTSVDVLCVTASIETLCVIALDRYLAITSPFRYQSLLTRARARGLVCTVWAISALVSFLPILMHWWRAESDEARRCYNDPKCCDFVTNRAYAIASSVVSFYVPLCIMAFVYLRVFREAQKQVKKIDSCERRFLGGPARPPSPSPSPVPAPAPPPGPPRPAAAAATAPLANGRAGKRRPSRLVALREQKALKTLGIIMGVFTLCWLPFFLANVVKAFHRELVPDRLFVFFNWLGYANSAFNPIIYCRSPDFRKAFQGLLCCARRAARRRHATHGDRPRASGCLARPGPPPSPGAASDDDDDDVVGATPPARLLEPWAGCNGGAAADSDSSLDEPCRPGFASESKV

Nn1nnc2ccccc21
Not Active: IC50 [1] | IC50 [2] | IC50 [3] | IC50 [4] | IC50 [5] | IC50 [6] | Ki [6] | IC50 [7] | Ki [7] | IC50 [8] | Ki [8]

CC[C@]1(O)CC[C@H]2[C@@H]3CCC4=CCCC[C@@H]4[C@H]3CC[C@@]21C
Not Active: IC50 [1] | IC50 [2] | IC50 [3] | IC50 [4] | IC50 [5] | IC50 [6] | Ki [6] | IC50 [7] | Ki [7] | IC50 [8] | Ki [8]

CCOC(=O)[C@H](CCc1ccccc1)N[C@@H](C)C(=O)N1Cc2ccccc2C[C@H]1C(=O)O
Not Active: IC50 [1] | IC50 [2] | IC50 [3] | IC50 [4] | IC50 [5] | IC50 [6] | Ki [6] | IC50 [7] | Ki [7] | IC50 [8] | Ki [8]

CCOC(=O)[C@H](CCc1ccccc1)N[C@@H](C)C(=O)N1CCC[C@H]1C(=O)O
Not Active: IC50 [1] | IC50 [2] | IC50 [3] | IC50 [4] | IC50 [5] | IC50 [6] | Ki [6] | IC50 [7] | Ki [7] | IC50 [8] | Ki [8]

Clc1cc2c(cc1Cl)Oc1cc(Cl)c(Cl)cc1O2 [2,3,7,8-TETRACHLORODIBENZO-P-DIOXIN]
Not Active: IC50 [1] | IC50 [2] | IC50 [3] | IC50 [4] | IC50 [5] | IC50 [6] | Ki [6] | IC50 [7] | Ki [7] | IC50 [8] | Ki [8]

C=C1/C(=C\C=C2/CCC[C@]3(C)[C@@H]([C@H](C)CCCC(C)C)CC[C@@H]23)C[C@@H](O)C[C@@H]1O [ALFACALCIDOL]
Not Active: IC50 [1] | IC50 [2] | IC50 [3] | IC50 [4] | IC50 [5] | IC50 [6] | Ki [6] | IC50 [7] | Ki [7] | IC50 [8] | Ki [8]

CCCCCC[C@H]1C(=O)O[C@H](C)[C@H](NC(=O)c2cccc(NC=O)c2O)C(=O)O[C@@H](C)[C@@H]1OC(=O)CC(C)C [ANTIMYCIN A]
Not Active: IC50 [1] | IC50 [2] | IC50 [3] | IC50 [4] | IC50 [5] | IC50 [6] | Ki [6] | IC50 [7] | Ki [7] | IC50 [8] | Ki [8]

CO[C@H]1[C@@H](O)[C@H](N)[C@@H](O[C@H]2O[C@H]([C@H](C)N)CC[C@H]2N)[C@H](O)[C@@H]1N(C)C(=O)CN [ASTROMICIN]
Not Active: IC50 [1] | IC50 [2] | IC50 [3] | IC50 [4] | IC50 [5] | IC50 [6] | Ki [6] | IC50 [7] | Ki [7] | IC50 [8] | Ki [8]

[N-]=[N+]=CC(=O)OC[C@H](N)C(=O)O [AZASERINE]
Not Active: IC50 [1] | IC50 [2] | IC50 [3] | IC50 [4] | IC50 [5] | IC50 [6] | Ki [6] | IC50 [7] | Ki [7] | IC50 [8] | Ki [8]

CC[C@H]1OC(=O)[C@H](C)[C@@H](O[C@H]2C[C@@](C)(OC)[C@@H](O)[C@H](C)O2)[C@H](C)[C@@H](O[C@@H]2O[C@H](C)C[C@H](N(C)C)[C@H]2O)[C@](C)(O)C[C@@H](C)CN(C)[C@H](C)[C@@H](O)[C@]1(C)O [AZITHROMYCIN]
Not Active: IC50 [1] | IC50 [2] | IC50 [3] | IC50 [4] | IC50 [5] | IC50 [6] | Ki [6] | IC50 [7] | Ki [7] | IC50 [8] | Ki [8]

CN(Cc1cnc2nc(N)nc(N)c2n1)c1ccc(C(=O)N[C@@H](CCC(=O)O)C(=O)O)cc1 [METHOTREXATE]
Not Active: IC50 [1] | IC50 [2] | IC50 [3] | IC50 [4] | IC50 [5] | IC50 [6] | Ki [6] | IC50 [7] | Ki [7]

O=C(O)c1cccnc1 [NIACIN]
Not Active: IC50 [1] | IC50 [2] | IC50 [3] | IC50 [4] | IC50 [5] | IC50 [6] | Ki [6] | IC50 [7] | Ki [7]

OCCN1CCN(CCCN2c3ccccc3Sc3ccc(Cl)cc32)CC1 [PERPHENAZINE]
Not Active: IC50 [1] | IC50 [2] | IC50 [3] | IC50 [4] | IC50 [5] | IC50 [6] | Ki [6] | IC50 [7] | Ki [7]
